For seven molecules, T/C results are on record in PubChem BioAssay AID190 (DTP/NCI, 2004).

“And” between values parts separate entries of the source, which are not always exact repeats. Equal entries are not always repeated. Inconclusive results and toxic doses are left out.

The assay has as its system AKR/Lw mice, AKR lymphoma ip, median survival T/C. In words: NCI In Vivo Anticancer Drug Screen. Data for tumor model Lymphoma AKR (Transplanted) (intraperitoneal) in AKR/Lw mice. To be noted: endpoint: median survival time, higher = longer survival. Here is the method:
The antitumor activity of compounds was measured in mice bearing transplantable tumors. Survival or tumor size were measured and the results are expressed as the measurement made in the treated group (T) divided by the measurement made in the vehicle treated control group (C). The tumor model used in this assay is Lymphoma AKR (Transplanted) (intraperitoneal) in AKR/Lw mice

Where [1] appears, read: dose: 12.5 mg/kg/injection, schedule: Q01DX001 (ip), vehicle: saline.
[2] abbreviates: dose: 100.0 mg/kg/injection, schedule: Q01DX001 (ip), vehicle: Klucel (hydroxypropylcellulose) (HPC).
[3] abbreviates: dose: 100.0 mg/kg/injection, schedule: Q01DX001 (ip), vehicle: saline.
The mark [4] stands for this setting: dose: 200.0 mg/kg/injection, schedule: Q01DX001 (ip), vehicle: saline.

Turning to `COC(=O)c1ccc(NCC(C)(C)N)cc1`, the T/C runs as follows: under setting [1], 100 % of control; (dose: 25.0 mg/kg/injection, schedule: Q01DX001 (ip), vehicle: saline) 94 % of control; (dose: 50.0 mg/kg/injection, schedule: Q01DX001 (ip), vehicle: saline) 88 % of control.

With `COc1cccc(CNc2cccc(Cl)c2Cl)c1OC`, the T/C (dose: 200.0 mg/kg/injection, schedule: Q01DX001 (ip), vehicle: saline with Tween-80) is 93 % of control and 100 % of control; the T/C (dose: 400.0 mg/kg/injection, schedule: Q01DX001 (ip), vehicle: saline with Tween-80) is 93 % of control and 113 % of control.

Regarding `NS(=O)(=O)c1ccc(N=Nc2nc3ncnc(SCc4cccs4)c3[nH]2)cc1`, the T/C runs as follows: under setting [2], 97 % of control; (dose: 200.0 mg/kg/injection, schedule: Q01DX001 (ip), vehicle: Klucel (hydroxypropylcellulose) (HPC)) 102 % of control; (dose: 400.0 mg/kg/injection, schedule: Q01DX001 (ip), vehicle: Klucel (hydroxypropylcellulose) (HPC)) 107 % of control.

Turning to `COc1ccc(NC(=S)Nc2ccccn2)cc1`, the T/C under setting [2] was 100 % of control.

Regarding `O=P1(N(CCCl)CCCl)NCCCO1` (centres undefined), the T/C was 117 % of control (dose: 0.5 mg/kg/injection, schedule: Q01DX015 (ip), vehicle: saline); 108 % of control (dose: 1.0 mg/kg/injection, schedule: Q01DX015 (ip), vehicle: saline); 91 % of control (dose: 1.5 mg/kg/injection, schedule: Q04DX003 (ip), vehicle: saline); 108 % of control (dose: 2.0 mg/kg/injection, schedule: Q01DX015 (ip), vehicle: saline); 119 % of control (dose: 2.0 mg/kg/injection, schedule: Q03HX032 (ip), vehicle: saline); 93 % of control (dose: 3.0 mg/kg/injection, schedule: Q04DX003 (ip), vehicle: saline). Also, the T/C by setting is: (dose: 3.1 mg/kg/injection, schedule: Q01DX009 (ip), vehicle: saline) 100 % of control and 102 % of control; (dose: 4.0 mg/kg/injection, schedule: Q03HX032 (ip), vehicle: saline) 117 % of control; (dose: 6.0 mg/kg/injection, schedule: Q01DX009 (ip), vehicle: saline) 97 % of control; (dose: 6.0 mg/kg/injection, schedule: Q04DX003 (ip), vehicle: saline) 93 % of control; (dose: 6.2 mg/kg/injection, schedule: Q04DX003 (ip), vehicle: saline) 97 % of control; (dose: 6.25 mg/kg/injection, schedule: Q07DX005 (ip), vehicle: saline) 112 % of control. In addition, the T/C reads like this: (dose: 7.0 mg/kg/injection, schedule: Q01DX015 (ip), vehicle: saline) 88 % of control; (dose: 8.0 mg/kg/injection, schedule: Q03HX032 (ip), vehicle: saline) 112 % of control; (dose: 10.0 mg/kg/injection, schedule: Q01DX009 (ip), vehicle: saline) 110 % of control and 118 % of control; (dose: 11.0 mg/kg/injection, schedule: Q01DX015 (ip), vehicle: saline) 100 % of control; (dose: 12.0 mg/kg/injection, schedule: Q04DX003 (ip), vehicle: saline) 97 % of control and 105 % of control; under setting [1], 92 % of control and 104 % of control and 116 % of control. Further, the T/C (dose: 20.0 mg/kg/injection, schedule: Q07DX004 (ip), vehicle: saline) was 120 % of control; the T/C (dose: 24.0 mg/kg/injection, schedule: Q01DX015 (ip), vehicle: saline) was 100 % of control and 117 % of control; the T/C (dose: 25.0 mg/kg/injection, schedule: Q07DX003 (ip), vehicle: saline) was 152 % of control; the T/C (dose: 25.0 mg/kg/injection, schedule: Q10DX002 (ip), vehicle: saline) is 152 % of control; the T/C (dose: 25.0 mg/kg/injection, schedule: Q10DX004 (ip), vehicle: saline) was 119 % of control; the T/C (dose: 25.0 mg/kg/injection, schedule: Q14DX003 (ip), vehicle: saline) was 178 % of control. The T/C reads like this: (dose: 25.0 mg/kg/injection, schedule: Q14DX004 (ip), vehicle: saline) 103 % of control; (dose: 33.0 mg/kg/injection, schedule: Q09DX002 (ip), vehicle: saline) 188 % of control; (dose: 37.5 mg/kg/injection, schedule: Q12DX002 (ip), vehicle: saline) 172 % of control; (dose: 44.0 mg/kg/injection, schedule: Q07DX004 (ip), vehicle: saline) 227 % of control; (dose: 50.0 mg/kg/injection, schedule: Q09DX002 (ip), vehicle: saline) 160 % of control and 234 % of control (2×); (dose: 50.0 mg/kg/injection, schedule: Q10DX002 (ip), vehicle: saline) 186 % of control. Further, the T/C by setting is: (dose: 50.0 mg/kg/injection, schedule: Q12DX002 (ip), vehicle: saline) 164 % of control; (dose: 50.0 mg/kg/injection, schedule: Q14DX003 (ip), vehicle: saline) 177 % of control; (dose: 50.0 mg/kg/injection, schedule: Q14DX004 (ip), vehicle: saline) 173 % of control; (dose: 50.0 mg/kg/injection, schedule: Q## X002 (ip), vehicle: saline) 164 % of control; (dose: 65.5 mg/kg/injection, schedule: Q04DX003 (ip), vehicle: saline) 236 % of control; (dose: 67.0 mg/kg/injection, schedule: Q07DX004 (ip), vehicle: saline) 232 % of control. The T/C by setting is: (dose: 67.0 mg/kg/injection, schedule: Q09DX002 (ip), vehicle: saline) 234 % of control; (dose: 75.0 mg/kg/injection, schedule: Q01DX001 (ip), vehicle: saline) 180 % of control and 226 % of control; (dose: 75.0 mg/kg/injection, schedule: Q01DX001 (ip), vehicle: water) 153 % of control; (dose: 75.0 mg/kg/injection, schedule: Q04DX003 (ip), vehicle: saline) 180 % of control; (dose: 75.0 mg/kg/injection, schedule: Q07DX003 (ip), vehicle: saline) 200 % of control and 210 % of control and 231 % of control; (dose: 75.0 mg/kg/injection, schedule: Q07DX005 (ip), vehicle: saline) 181 % of control. Also, the T/C reads like this: (dose: 75.0 mg/kg/injection, schedule: Q12DX002 (ip), vehicle: saline) 226 % of control; (dose: 100.0 mg/kg/injection, schedule: Q01DX001 (ip), vehicle: saline with Tween-80) 154 % of control; (dose: 100.0 mg/kg/injection, schedule: Q01DX009 (ip), vehicle: saline) 112 % of control; (dose: 100.0 mg/kg/injection, schedule: Q07DX004 (ip), vehicle: saline) 200 % of control; (dose: 100.0 mg/kg/injection, schedule: Q07DX005 (ip), vehicle: saline) 95 % of control; (dose: 100.0 mg/kg/injection, schedule: Q09DX002 (ip), vehicle: saline) 117 % of control and 228 % of control (2×). For the same molecule, the T/C (dose: 100.0 mg/kg/injection, schedule: Q10DX004 (ip), vehicle: saline) was 175 % of control; the T/C (dose: 100.0 mg/kg/injection, schedule: Q14DX003 (ip), vehicle: saline) is 235 % of control; the T/C (dose: 125.0 mg/kg/injection, schedule: Q07DX003 (ip), vehicle: saline) was 105 % of control and 110 % of control; the T/C (dose: 150.0 mg/kg/injection, schedule: Q01DX001 (ip), vehicle: saline with Tween-80) is 179 % of control; the T/C (dose: 150.0 mg/kg/injection, schedule: Q01DX001 (ip), vehicle: water) is 171 % of control and 196 % of control; the T/C (dose: 150.0 mg/kg/injection, schedule: Q07DX005 (ip), vehicle: saline) is 95 % of control. Moreover, the T/C was 209 % of control (dose: 150.0 mg/kg/injection, schedule: Q10DX004 (ip), vehicle: saline); 100 % of control (dose: 200.0 mg/kg/injection, schedule: Q01DX009 (ip), vehicle: saline); 103 % of control (dose: 200.0 mg/kg/injection, schedule: Q09DX002 (ip), vehicle: saline); 114 % of control (dose: 200.0 mg/kg/injection, schedule: Q10DX002 (ip), vehicle: saline); 171 % of control and 188 % of control (dose: 300.0 mg/kg/injection, schedule: Q01DX001 (ip), vehicle: water); 100 % of control (dose: 500.0 mg/kg/injection, schedule: Q01DX001 (ip), vehicle: saline).

Take `CC12CCCC(=O)C1CC/C(=C\c1ccco1)C2=O` (centres undefined): the T/C runs as follows: under setting [3], 109 % of control; under setting [4], 100 % of control; (dose: 400.0 mg/kg/injection, schedule: Q01DX001 (ip), vehicle: saline) 100 % of control.

Consider `CC[N+]1=NC2CCCC(C2)C1` (centres undefined), for which the T/C was 101 % of control under setting [3] and 106 % of control under setting [4].
